Experimental data: patent US20240383882A1 (Ecstasy LLC, priority 2020, published 2024)

System: male C57BL/6 mice
Assay: 55° C. warm-water tail-flick test (antinociception)
Format: in vivo
Conditions: Mus musculus; half maximal effective dose in mice; using one of: warm water tail-flick test, spared nerve injury, chronic constriction injury, or Complete Freund's adjuvant induced inflammatory pain (not stated which per compound); read-out: Biological Activity (ED50)
In short: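 Subcutaneous dosing, then tail immersion in 55° C water at 30–120 min; latency normalized as 100×(test−control)/(20−control), using a 20 s cutoff, after excluding mice not responding within 2 s at baseline. Values expressed as ED50 (mg/kg).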

Structure (SMILES)	ED50 [mg/kg]
CC(C)(c1ccccn1)N1CC[C@@](/C=C/c2ccc(C(F)(F)F)o2)(COCc2ccccc2)C1 [Compound 188, (S,E)-2-(2-(3-((benzyloxy)methyl)-3-(2-(5-(trifluoromethyl)furan-2-yl)vinyl)pyrrolidin-1-yl)propan-2-yl)pyridine]	> 50
CC(C)(c1ccccn1)N1CC[C@](CO)(CCc2ccc(C(F)(F)F)o2)C1 [Compound 189, (R)-(1-(2-(pyridin-2-yl)propan-2-yl)-3-(2-(5-(trifluoromethyl)furan-2-yl)ethyl)pyrrolidin-3-yl)methano]	> 50
CC(C)(c1ccccn1)N1CC[C@](CO)(CCc2cnc(C(F)(F)F)nc2)C1 [Compound 190, (R)-(1-(2-(pyridin-2-yl)propan-2-yl)-3-(2-(2-(trifluoromethyl)pyrimidin-5-yl)ethyl)pyrrolidin-3-yl)methanol]	> 50
CC(C)(c1ccccn1)N1CC[C@@](CCc2ccc3ccoc3c2)(c2c[nH]nn2)C1 [Compound 191, (R)-2-(2-(3-(2-(benzofuran-6-yl)ethyl)-3-(1H-1,2,3-triazol-4-yl)pyrrolidin-1-yl)propan-2-yl)pyridine]	> 50
CCOC[C@@]1(CCc2ccc(S(C)(=O)=O)cc2)CCN(C(C)(C)c2ccccc2)C1 [Compound 200, (S)-3-(ethoxymethyl)-3-(4-(methylsulfonyl)phenethyl)-1-(2-phenylpropan-2-yl)pyrrolidine]	≤ 30
CC(C)(c1ccccn1)N1CC[C@@](CCc2ccc(C#N)cc2)(C(=O)NC2(C(F)(F)F)CC2)C1 [Compound 201, (R)-3-(4-cyanophenethyl)-1-(2-(pyridin-2-yl)propan-2-yl)-N-(1-(trifluoromethyl)cyclopropyl) pyrrolidine-3-carboxamide]	≤ 30
CC(C)(c1ccccn1)N1CC[C@@](CCc2ccc(C#N)cc2)(CNC2(C(F)(F)F)COC2)C1 [Compound 202, (S)-4-(2-(1-(2-(pyridin-2-yl)propan-2-yl)-3-(((3-(trifluoromethyl)oxetan-3-yl)amino)methyl)pyrrolidin-3-yl)ethyl) benzonitrile]	> 50
CC(C)(c1ccccn1)N1CC[C@@](CCc2ccc(C#N)cc2)(CNC2(C(F)(F)F)CC2)C1 [Compound 203, (S)-4-(2-(1-(2-(pyridin-2-yl)propan-2-yl)-3-(((1-(trifluoromethyl)cyclopropyl)amino)methyl)pyrrolidin-3-yl)ethyl) benzonitrile]	> 50
CC(C)(c1ccccn1)N1CC[C@@](CCc2ccc(C#N)cc2)(C(=O)NC2(C(F)(F)F)COC2)C1 [Compound 206, (R)-3-(4-cyanophenethyl)-1-(2-(pyridin-2-yl)propan-2-yl)-N-(3-(trifluoromethyl)oxetan-3-yl)pyrrolidine-3-carboxamide]	≤ 30
CC(C)(c1ccccn1)N1CC[C@@](CCc2ccc(C#N)cc2)(C(=O)Nc2ccc(F)cn2)C1 [Compound 207, (R)-3-(4-cyanophenethyl)-N-(5-fluoropyridin-2-yl)-1-(2-(pyridin-2-yl)propan-2-yl)pyrrolidine-3-carboxamide]	≤ 30
CC(C)(c1ccccn1)N1CC[C@@](CCc2ccc(C#N)cc2)(C(=O)NC2(C#N)COC2)C1 [Compound 208, (R)-N-(3-cyanooxetan-3-yl)-3-(4-cyanophenethyl)-1-(2-(pyridin-2-yl)propan-2-yl)pyrrolidine-3-carboxamide]	≤ 30
CC(C)(c1ccccn1)N1CC[C@@](CCc2ccc(C#N)cc2)(CNC2(C#N)COC2)C1 [Compound 209, (S)-3-(((3-(4-cyanophenethyl)-1-(2-(pyridin-2-yl)propan-2-yl)pyrrolidin-3-yl)methyl)amino) oxetane-3-carbonitrile]	> 50
CC(C)(c1ccccc1)N1CC[C@](CCc2ccc(S(C)(=O)=O)cc2)([C@@H](O)C(F)(F)F)C1 [Compound 212, (R)-2,2,2-trifluoro-1-((S)-3-(4-(methylsulfonyl)phenethyl)-1-(2-phenylpropan-2-yl)pyrrolidin-3-yl)ethan-1-ol]	≤ 30
CC(C)(c1ccccn1)N1CC[C@](CO)(CCc2ccc(F)cc2)C1 [Compound 215, (R)-(3-(4-fluorophenethyl)-1-(2-(pyridin-2-yl)propan-2-yl)pyrrolidin-3-yl)methanol]	> 50
CCOC[C@]1(CCc2ccc(S(C)(=O)=O)cc2)CCN(C(C)(C)c2ccc(Cl)cc2)C1 [Compound 221, (R)-1-(2-(4-chlorophenyl)propan-2-yl)-3-(ethoxymethyl)-3-(4-(methylsulfonyl)phenethyl) pyrrolidine]	> 50
CC(C)(c1ccccn1)N1CC[C@](CCc2ccc(C#N)cc2)(c2ncc[nH]2)C1 [Compound 225, (S)-4-(2-(3-(1H-imidazol-2-yl)-1-(2-(pyridin-2-yl)propan-2-yl)pyrrolidin-3-yl)ethyl) benzonitrile]	> 50
CC(C)(c1ccc(F)cn1)N1CC[C@@](CO)(CCc2ccc(C#N)cc2)C1 [Compound 226, (S)-4-(2-(1-(2-(5-fluoropyridin-2-yl)propan-2-yl)-3-(hydroxymethyl)pyrrolidin-3-yl)ethyl) benzonitrile]	> 50
